Assays:
[1] = test system: LC3 I/II in COLO 205 cells; test: Western blotting of LC3 I/II expression; format: cell-based, human; conditions: COLO 205, 50 μM, 24 hours, compared to pterostilbene
Procedure: Western blotting analysis was performed as follows. The total proteins of COLO 205 cells were extracted via addition of gold lysis buffer (50 mM TrisHCl, pH 7.4; 1 mM NaF; 150 mM NaCl; 1 mM EGTA; 1 mM phenylmethanesulfonyl fluoride; 1% NP40; and 10 μg/mL leupeptin) to the cell pellets on ice for 30 min, followed by centrifugation at 10,000×g for 30 min at 4° C. The total proteins were measured by BioRad Protein Assay (BioRad Laboratories, Munich, Germany). The samples (50 μg of protein) were mixed with 5× sample buffer containing 0.3 M TrisHCl (pH 6.8), 25% 2mercaptoethanol, 12% sodium dodecyl sulfate (SDS), 25 mM EDTA, 20% glycerol, and 0.1% bromophenol blue. The mixtures were boiled at 100° C. for 5 min and were subjected to 10% SDS polyacrylamide minigels at a constant current of 20 mA. Electrophoresis was then carried out on SDSpolyacrylaniide gels. […] The transferred proteins were visualized with an enhanced chemi-luminescence detection kit (ECL Amersham Pharmacia Biotech, Buckinghamshire, UK). The densities of the bands were quantified with a computer densitometer (AlphaImager™ 2200 System Alpha densitometer. Innotech Corporation, San Leandro, Calif.). […]
COLO 205 cells were treated with 50 μM pterostilbene or 3-hydroxypterostilbene for 24 hours. Cell lysates were prepared after 24 h treatment and the protein expression of LC3 were analyzed by Western blotting.

COLO 205 cells [2] = test: Flow cytometry analysis of subG1 cell population (PI staining); format: cell-based, human; conditions: 24 h
Procedure: For subG1 cell population analysis, COLO 205 cells (2×10^5 cells/mL) were cultured in 12 well and treatment with various concentrations of pterostilbene or 3-hydroxypterostilbene for 24 h. The cells were then harvested, washed with PBS, re-suspended in 200 μL of PBS, and fixed in 800 μL of iced 100% ethanol at […]. After being left to stand overnight, the cell pellets were collected by centrifugation, re-suspended in 1 mL of hypotonic buffer (0.5% Triton X100 in PBS and 0.5 μg/mL RNase) with PI (50 μg/mL) and incubated at 37° C. in the dark for 30 min. Fluorescence emitted from the PIDNA complex was quantitated after excitation of the fluorescent dye by FACScan cytometry (Becton Dickinson, San Jose, Calif.). […] The results indicated a higher apoptotic potential of 3-hydroxypterostilbene for COLO 205 cells.

[3] = test system: multi drug resistant and BCR-ABL-expressing leukemia cells; conditions: Tolomeo et al. 2005; cited from earlier work
HT-29 cells = test: MTT cell viability assay, HT29; format: cell-based; conditions: Homo sapiens; HT-29, MTT, 24 h
Procedure: The human colon cancer cell lines COLO 205, HCT116 and HT29 were purchased from the American Type Culture Collection (Rockville, Md.). Cell lines were grown in RPMI1640 supplemented with 10% heat inactivated fetal bovine serum (GIBCO BRL, Grand Island, N.Y.), 100 units/mL of penicillin, 100 μg/mL of streptomycin), 2 mM L-glutamine (GIBCO BRL, Grand Island, N.Y.), and were kept at 37° C. in a humidified 5% CO2 incubator. Pterostilbene and 3-HPT were dissolved in dimethyl sulfoxide (DMSO, as final concentration of 0.05%). Cells were treated with 0.05% DMSO as vehicle control.
Cell viability was assayed by 3(4,5-dimethylthiazol-2-yl)-2,5-diphenyltetrazolium bromide (MTT). Briefly. COLO 205, HCT116 and HT29 cells were plated at a density of 2×10^2 cells/mL into 96 well plates. After overnight growth, cells were treated with a series of concentrations of pterostilbene or 3-hydroxypterostilbene for 24 h. The final concentrations of DMSO in the culture medium were <0.05%. At the end of treatment, 0.2% MTT was added and cells were incubated for a further 4 h. Cell viability was determined by scanning with an ELISA reader with a 570 nm filter.

[4] = test system: Bcl-xL and Bax in PC-3 cells; test: Western blot of Bcl-xL and Bax expression; format: cell-based, human; conditions: PC-3, 10 μM, different time intervals
[5] = test system: caspase 3 activity in COLO 205 cells; test: Fluorogenic caspase induction assay; format: cell-based, human; conditions: COLO 205, after 24 hours of treatment
Procedure: The caspase 3, 8 and 9 induction activity in protein extractions of COLO 205 cells was determined by a fluorogenic assay (Promega's CaspACE Assay System, Madison, Wis.). Briefly, 50 μg of total protein, as determined by the BioRad protein assay kit (BioRad Laboratories), was incubated with 50 μM substrate Ac-Asp-Glu-Val-Asp-methylcoumaryl-7-amine (caspase3 specific substrate), Ac-Ile-Glu-Thr-Asp-AMC ([…]) (caspase 8 specific substrate), or Ac-Leu-Glu-His-Asp-AMC (Ac-LEHD-AMC) (caspase 9 specific substrate) at 30° C. for 1 h. The release of methylcoumaryl-7-amine was measured by excitation at 360 nm and emission at 460 nm using a fluorescence spectrophotometer (ECLIPSE, Varian, Palo Alto, Calif.).

COLO 205 cells [6] = test: Chloroquine (CQ) pretreatment, MTT viability and subG1 analysis; format: cell-based; conditions: COLO 205, 25 μM CQ 1 h then 50 μM for 24 h
Procedure: Cells were pretreated with 25 μM CQ for 1 h before treatment with 50 μM of pterostilbene or 3-hydroxypterostilbene for 24 h. Cell viability was determined by MTT assay. SubG1 cell population (%) was analyzed and quantified after Propidium iodide (PI) staining followed by flow cytometry.

COc1cc(/C=C/c2ccc(O)c(O)c2)cc(OC)c1 [3-hydroxypterostilbene, 3,4-dihydroxy-3′,5′-dimethoxy-trans-stilbene]
protein LC3 I/II expression [1]: Enhanced protein LC3 I/II expression
percentage of apoptotic COLO 205 cells (subG1) (COLO 205 cells [2]; 5 μM): 7.2%
percentage of apoptotic COLO 205 cells (subG1) (COLO 205 cells [2]; 10 μM): 9.3%
percentage of apoptotic COLO 205 cells (subG1) (COLO 205 cells [2]; 25 μM): 20.1%
percentage of apoptotic COLO 205 cells (subG1) (COLO 205 cells [2]; 50 μM): 36.3%
apoptosis induction in leukemia cells [3]: effective apoptosis-inducing agents
IC50 (HT-29 cells): 70.9 ± 1 µM
Bax (pro-apoptotic protein) expression [4]: upregulates
Bcl-xL (anti-apoptotic protein) expression [4]: clearly down-regulates
increase in caspase 3 activity [5]: approximately 2.4 fold
cytotoxicity after CQ pretreatment (COLO 205 cells [6]): significant increase cytotoxicity
